According to ChEMBL document CHEMBL4038322, “Interactions between β2-Adrenoceptor Ligands and Membrane: Atomic-Level Insights from Magic-Angle Spinning NMR” (J Med Chem, 2017):
Activity calls are given as the source filed them. The calls are words filed in the database; no cut-off is given here.

How the values were obtained:
Lipid bilayer [1] = test: Binding affinity to POPC liposome membrane at compound to POPC molar ratio of 1:10 after 3 milliseconds in presence of Mn2+ by 2D NOESY NMR analysis
Lipid bilayer [2] = test: Binding affinity to POPC liposome membrane assessed as 31P chemical shift anisotropy at compound to POPC molar ratio of 1:10 by NMR analysis (reference value: 28.9 ppm)
Lipid bilayer [3] = test: Binding affinity to POPC liposome membrane at compound to POPC molar ratio of 1:10 after 3 milliseconds by 2D NOESY NMR analysis
Lipid bilayer [4] = test: Binding affinity to POPC liposome membrane assessed as cross-relaxation rate of E proton with C-3/C-2 region of lipid at compound to POPC molar ratio of 1:10 by NOESY 1H NMR analysis
Lipid bilayer [5] = test: Binding affinity to POPC liposome membrane in liquid disorder phase assessed as broadening of POPC signals at compound to POPC molar ratio of 1:5 by 1D 1H […] analysis
Lipid bilayer [6] = test: Binding affinity to POPC liposome membrane in liquid disorder phase assessed as change in cross-relaxation rate of hydrophilic group B protons with G-3 segment at compound to POPC molar ratio of 1:10 to 1:5 by 1D 1H […] analysis
Lipid bilayer [7] = test: Binding affinity to POPC liposome membrane assessed as 31P chemical shift anisotropy at compound to POPC molar ratio of 1:10 in presence of Mn2+ by NMR analysis
Lipid bilayer [8] = test: Binding affinity to POPC liposome membrane in liquid disorder phase assessed as change in cross-relaxation rate of lypophilic group E protons with C2/C3 segment at compound to POPC molar ratio of 1:10 to 1:5 by 1D 1H […] analysis
[9] = n-octanol/PBS/sodium carbonate partition coefficient, log P of the compound after 4 hrs; type: physicochemical
[10] = Lipophilicity of the compound assessed as capacity factor (CHI IAM7.4) at pH 7.4 by chromatographic analysis; type: physicochemical; settings: buffer
Lipid bilayer [11] = test: Binding affinity to POPC liposome membrane in liquid disorder phase assessed as change in cross-relaxation rate of hydrophilic group B protons with G-1 segment at compound to POPC molar ratio of 1:10 to 1:5 by 1D 1H […] analysis
Lipid bilayer [12] = test: Binding affinity to POPC liposome membrane assessed as cross-relaxation rate of H proton with C-3/C-2 region of lipid at compound to POPC molar ratio of 1:10 by NOESY 1H NMR analysis
Lipid bilayer [13] = test: Binding affinity to POPC liposome membrane at compound to POPC molar ratio of 1:10 after 300 milliseconds by NOESY 1H NMR analysis
Lipid bilayer [14] = test: Binding affinity to POPC liposome membrane assessed as cross-relaxation rate of F proton with C-3/C-2 region of lipid at compound to POPC molar ratio of 1:10 by NOESY 1H NMR analysis
Lipid bilayer [15] = test: Binding affinity to POPC liposome membrane assessed as cross-relaxation rate of F protons with segment alpha at compound to POPC molar ratio of 1:10 by NOESY 1H NMR analysis; parameters: scale not given: the % may be the effect or the level left
Lipid bilayer [16] = test: Binding affinity to POPC liposome membrane assessed as cross-relaxation rate of F protons with segment G-3 at compound to POPC molar ratio of 1:10 by NOESY 1H NMR analysis; parameters: scale not given: the % may be the effect or the level left
Lipid bilayer [17] = test: Binding affinity to POPC liposome membrane assessed as cross-relaxation rate of E protons with C2/C3 segment at compound to POPC molar ratio of 1:10 by NOESY 1H NMR analysis
Lipid bilayer [18] = test: Binding affinity to POPC liposome membrane assessed as cross-relaxation rate of F protons with segment gamma at compound to POPC molar ratio of 1:10 by NOESY 1H NMR analysis; parameters: scale not given: the % may be the effect or the level left
Lipid bilayer [19] = test: Binding affinity to POPC liposome membrane assessed as cross-relaxation rate of F protons with segment beta at compound to POPC molar ratio of 1:10 by NOESY 1H NMR analysis; parameters: scale not given: the % may be the effect or the level left
Lipid bilayer [20] = test: Binding affinity to POPC liposome membrane assessed as cross-relaxation rate of E protons with CH2-C= segment at compound to POPC molar ratio of 1:10 by NOESY 1H NMR analysis
Lipid bilayer [21] = test: Binding affinity to POPC liposome membrane assessed as cross-relaxation rate of E protons with (CH2)n segment at compound to POPC molar ratio of 1:10 by NOESY 1H NMR analysis
Lipid bilayer [22] = test: Binding affinity to POPC liposome membrane assessed as cross-relaxation rate of F protons with lipid acyl CH3 at compound to POPC molar ratio of 1:10 by NOESY 1H NMR analysis; parameters: scale not given: the % may be the effect or the level left

| SMILES | Activity (Lipid bilayer [2]) | Activity (Lipid bilayer [4]) | Activity (Lipid bilayer [6]) | logP at 4 h [9] | CHI [10] | Activity (Lipid bilayer [11]) | also measured |
| --- | --- | --- | --- | --- | --- | --- | --- |
| CCc1cc2c(cc1CC)CC(NC[C@H](O)c1ccc(O)c3[nH]c(=O)ccc13)C2 [INDACATEROL] | 32 to 33.6 ppm | Active | Active | 3.05 | 62.5 | Active | Activity (Lipid bilayer [1]): Active; Activity (Lipid bilayer [3]): Active; Activity (Lipid bilayer [5]): 20 to 40%; Activity (Lipid bilayer [7]): Active; Activity (Lipid bilayer [8]): Active |
| COc1ccc(CC(C)NCC(O)c2ccc(O)c(NC=O)c2)cc1 (stereo not drawn) | 32 to 33.6 ppm |  |  |  |  |  | Activity (Lipid bilayer [12]): Active; Activity (Lipid bilayer [13]): Active |
| CCc1ccc(CC)c2c1CC(NC[C@H](O)c1ccc(O)c3[nH]c(=O)ccc13)C2 | 32 to 33.6 ppm |  |  | 3.03 | 58.9 |  | Activity (Lipid bilayer [14]): Active |
| OCc1cc(C(O)CNCCCCCCOCCCCc2ccccc2)ccc1O (stereo not drawn) [SALMETEROL] | 32 to 33.6 ppm | < 0.0025 s⁻¹ | Active | 3.08 | 56.7 | Active | Activity (Lipid bilayer [15]): 69%; Activity (Lipid bilayer [16]): 49%; Activity (Lipid bilayer [17]): Active; Activity (Lipid bilayer [18]): 43%; Activity (Lipid bilayer [19]): 26%; Activity (Lipid bilayer [20]): Active; Activity (Lipid bilayer [21]): Active; Activity (Lipid bilayer [22]): 58% |
| O=c1ccc2c([C@@H](O)CNC3Cc4ccccc4C3)ccc(O)c2[nH]1 | 32 to 33.6 ppm | Active | Active | 1.55 | 41.6 | Active |  |
